ChEMBL document CHEMBL3885861, “Open TG-GATES”

Organism: Rattus norvegicus
Experiment: Open TG-GATES - Regimen: Daily Repeat
Assay type: toxicity, organism-based, Sprague-Dawley
Set-up: regimen Daily Repeat, gender Male, age 6 weeks
Settings: in vivo, po, route gavage; for APTT / Bas / Eos / Fbg / Hb / Ht / Lym / MCH / MCHC / MCV / Mono / Neu / PT / Plat / RBC / Ret / WBC: tissue Blood; for KIDNEY_TOTAL: tissue Kidney; for LIVER: tissue Liver; for A/G / ALP / ALT / AST / BUN / CRE / Ca / Cl / DBIL / GLC / IP / K / LDH / Na / PL / RALB / TBIL / TC / TG / TP / gamma-GTP: tissue Plasma
[1] = 0 mg/kg, 72 h, dose level Control, time 3 day
[2] = 0 mg/kg, […], dose level Control, time 7 day
[3] = 0 mg/kg, […], dose level Control, time 14 day
[4] = 0 mg/kg, […], dose level Control, time 28 day
[5] = 2 mg/kg, 72 h, dose level Low, time 3 day
[6] = 2 mg/kg, […], dose level Low, time 7 day
[7] = 2 mg/kg, […], dose level Low, time 14 day
[8] = 2 mg/kg, […], dose level Low, time 28 day

CN(CCOc1ccc(CC2SC(=O)NC2=O)cc1)c1ccccn1.O=C(O)/C=C\C(=O)O (stereo not drawn) [ROSIGLITAZONE MALEATE]
TERMINAL_BW [1]: 242.8 g
APTT [1]: 15.5 s
Bas [1]: 0%
Eos [1]: 1.2%
Fbg [1]: 236.8 mg/dL
Hb [1]: 13 g/dL
Ht [1]: 39.2%
Lym [1]: 76.6%
MCH [1]: 21.1 pg
MCHC [1]: 33%
MCV [1]: 63.9 fL
Mono [1]: 5.2%
Neu [1]: 17.4%
PT [1]: 11.5 s
Plat [1]: 136 x10_4/uL
RBC [1]: 615.6 x10_4/ul
Ret [1]: 6.6%
WBC [1]: 98 x10_2/uL
KIDNEY_TOTAL [1]: 0.8 g
LIVER [1]: 12.6 g
A/G [1]: 2.2
ALP [1]: 1243.6 IU/L
ALT [1]: 35.6 IU/L
AST [1]: 62.6 IU/L
BUN [1]: 14.8 mg/dL
CRE [1]: 0.2 mg/dL
Ca [1]: 11.7 mg/dL
Cl [1]: 104.2 meq/L
DBIL [1]: 0.014 mg/dL
GLC [1]: 197.6 mg/dL
IP [1]: 6.9 mg/dL
K [1]: 4.7 meq/L
LDH [1]: 96.2 IU/L
Na [1]: 140.4 meq/L
PL [1]: 154.8 mg/dL
RALB [1]: 3.9 g/dL
TBIL [1]: 0.04 mg/dL
TC [1]: 83.4 mg/dL
TG [1]: 105.8 mg/dL
TP [1]: 5.8 g/dL
gamma-GTP [1]: 0.2 IU/L
TERMINAL_BW [2]: 274.1 g
TERMINAL_BW [3]: 332.1 g
TERMINAL_BW [4]: 412.9 g
APTT [2]: 16.1 s
Bas [2]: 0%
Eos [2]: 1%
Fbg [2]: 242.4 mg/dL
Hb [2]: 13.4 g/dL
Ht [2]: 40.5%
Lym [2]: 82%
MCH [2]: 20.8 pg
MCHC [2]: 33%
MCV [2]: 63 fL
Mono [2]: 4.4%
Neu [2]: 12.8%
PT [2]: 11.7 s
Plat [2]: 134.6 x10_4/uL
RBC [2]: 643.8 x10_4/ul
Ret [2]: 4.6%
WBC [2]: 98.6 x10_2/uL
APTT [3]: 15.7 s
Bas [3]: 0%
Eos [3]: 1%
Fbg [3]: 247.4 mg/dL
Hb [3]: 14 g/dL
Ht [3]: 42.3%
Lym [3]: 74.4%
MCH [3]: 20.6 pg
MCHC [3]: 33%
MCV [3]: 62.2 fL
Mono [3]: 6%
Neu [3]: 18.6%
PT [3]: 11.5 s
Plat [3]: 126.2 x10_4/uL
RBC [3]: 680.2 x10_4/ul
Ret [3]: 3.6%
WBC [3]: 124.2 x10_2/uL
APTT [4]: 16 s
Bas [4]: 0%
Eos [4]: 1%
Fbg [4]: 242.4 mg/dL
Hb [4]: 14.6 g/dL
Ht [4]: 44%
Lym [4]: 75.2%
MCH [4]: 19.5 pg
MCHC [4]: 33.2%
MCV [4]: 58.9 fL
Mono [4]: 7.6%
Neu [4]: 16.4%
PT [4]: 11.7 s
Plat [4]: 120.2 x10_4/uL
RBC [4]: 747.6 x10_4/ul
Ret [4]: 2.6%
WBC [4]: 114.8 x10_2/uL
KIDNEY_TOTAL [2]: 0.7 g
KIDNEY_TOTAL [3]: 0.9 g
KIDNEY_TOTAL [4]: 0.9 g
LIVER [2]: 12.9 g
LIVER [3]: 15.7 g
LIVER [4]: 17.1 g
A/G [2]: 2
ALP [2]: 1306.8 IU/L
ALT [2]: 33.2 IU/L
AST [2]: 58.8 IU/L
BUN [2]: 18.2 mg/dL
CRE [2]: 0.5 mg/dL
Ca [2]: 19.5 mg/dL
Cl [2]: 104.8 meq/L
DBIL [2]: 0.01 mg/dL
GLC [2]: 181.4 mg/dL
IP [2]: 7.1 mg/dL
K [2]: 4.5 meq/L
LDH [2]: 79 IU/L
Na [2]: 140 meq/L
PL [2]: 148.6 mg/dL
RALB [2]: 3.8 g/dL
TBIL [2]: 0.028 mg/dL
TC [2]: 76.6 mg/dL
TG [2]: 138.8 mg/dL
TP [2]: 5.7 g/dL
gamma-GTP [2]: 0.2 IU/L
A/G [3]: 2.1
ALP [3]: 1411 IU/L
ALT [3]: 32.8 IU/L
AST [3]: 62.4 IU/L
BUN [3]: 19 mg/dL
CRE [3]: 0.4 mg/dL
Ca [3]: 11.1 mg/dL
Cl [3]: 106 meq/L
DBIL [3]: 0.01 mg/dL
GLC [3]: 186.4 mg/dL
IP [3]: 7.2 mg/dL
K [3]: 4.5 meq/L
LDH [3]: 65 IU/L
Na [3]: 143 meq/L
PL [3]: 159.4 mg/dL
RALB [3]: 3.9 g/dL
TBIL [3]: 0.036 mg/dL
TC [3]: 76.4 mg/dL
TG [3]: 186.4 mg/dL
TP [3]: 5.8 g/dL
gamma-GTP [3]: 1 IU/L
A/G [4]: 1.9
ALP [4]: 1035.6 IU/L
ALT [4]: 29.2 IU/L
AST [4]: 55 IU/L
BUN [4]: 18.4 mg/dL
CRE [4]: 0.4 mg/dL
Ca [4]: 10.7 mg/dL
Cl [4]: 105 meq/L
DBIL [4]: 0.012 mg/dL
GLC [4]: 183 mg/dL
IP [4]: 6.1 mg/dL
K [4]: 4.4 meq/L
LDH [4]: 68.8 IU/L
Na [4]: 139.8 meq/L
PL [4]: 144.8 mg/dL
RALB [4]: 3.9 g/dL
TBIL [4]: 0.036 mg/dL
TC [4]: 73.2 mg/dL
TG [4]: 162 mg/dL
TP [4]: 5.9 g/dL
gamma-GTP [4]: 0.4 IU/L
TERMINAL_BW [5]: 243.4 g
APTT [5]: 15.7 s
Bas [5]: 0%
Eos [5]: 1%
Fbg [5]: 233.4 mg/dL
Hb [5]: 13.2 g/dL
Ht [5]: 40.2%
Lym [5]: 73%
MCH [5]: 20.7 pg
MCHC [5]: 32.7%
MCV [5]: 63.4 fL
Mono [5]: 7.4%
Neu [5]: 18.8%
PT [5]: 11.7 s
Plat [5]: 133 x10_4/uL
RBC [5]: 634.8 x10_4/ul
Ret [5]: 6.7%
WBC [5]: 88.6 x10_2/uL
KIDNEY_TOTAL [5]: 0.7 g
LIVER [5]: 12.2 g
A/G [5]: 2.1
ALP [5]: 1105.8 IU/L
ALT [5]: 36 IU/L
AST [5]: 64.2 IU/L
BUN [5]: 15.6 mg/dL
CRE [5]: 0.2 mg/dL
Ca [5]: 11.5 mg/dL
Cl [5]: 104.4 meq/L
DBIL [5]: 0.01 mg/dL
GLC [5]: 189.4 mg/dL
IP [5]: 8 mg/dL
K [5]: 4.6 meq/L
LDH [5]: 128.2 IU/L
Na [5]: 140.8 meq/L
PL [5]: 152.2 mg/dL
RALB [5]: 3.9 g/dL
TBIL [5]: 0.034 mg/dL
TC [5]: 83 mg/dL
TG [5]: 88.2 mg/dL
TP [5]: 5.8 g/dL
gamma-GTP [5]: 0 IU/L
TERMINAL_BW [6]: 271.5 g
TERMINAL_BW [7]: 343.6 g
TERMINAL_BW [8]: 425.3 g
APTT [6]: 16.1 s
Bas [6]: 0%
Eos [6]: 1%
Fbg [6]: 246.6 mg/dL
Hb [6]: 13.3 g/dL
Ht [6]: 40.4%
Lym [6]: 77.6%
MCH [6]: 20.9 pg
MCHC [6]: 32.9%
MCV [6]: 63.5 fL
Mono [6]: 5.2%
Neu [6]: 16.2%
PT [6]: 11.5 s
Plat [6]: 134.4 x10_4/uL
RBC [6]: 636.8 x10_4/ul
Ret [6]: 5.1%
WBC [6]: 102.8 x10_2/uL
APTT [7]: 15.3 s
Bas [7]: 0%
Eos [7]: 0.8%
Fbg [7]: 233.4 mg/dL
Hb [7]: 13.4 g/dL
Ht [7]: 40.9%
Lym [7]: 77.6%
MCH [7]: 20.2 pg
MCHC [7]: 32.8%
MCV [7]: 61.5 fL
Mono [7]: 5.4%
Neu [7]: 16.2%
PT [7]: 11.7 s
Plat [7]: 116.6 x10_4/uL
RBC [7]: 666 x10_4/ul
Ret [7]: 3.8%
WBC [7]: 109.2 x10_2/uL
APTT [8]: 15.7 s
Bas [8]: 0%
Eos [8]: 1%
Fbg [8]: 236.8 mg/dL
Hb [8]: 14.4 g/dL
Ht [8]: 44%
Lym [8]: 83.2%
MCH [8]: 18.7 pg
MCHC [8]: 32.7%
MCV [8]: 57.2 fL
Mono [8]: 3.8%
Neu [8]: 12%
PT [8]: 11.9 s
Plat [8]: 108.5 x10_4/uL
RBC [8]: 769.2 x10_4/ul
Ret [8]: 2.2%
WBC [8]: 93.8 x10_2/uL
KIDNEY_TOTAL [6]: 0.7 g
KIDNEY_TOTAL [7]: 0.8 g
KIDNEY_TOTAL [8]: 0.7 g
LIVER [6]: 12.8 g
LIVER [7]: 15.1 g
LIVER [8]: 16.8 g
A/G [6]: 2
ALP [6]: 1242 IU/L
ALT [6]: 32.4 IU/L
AST [6]: 62.2 IU/L
BUN [6]: 19 mg/dL
CRE [6]: 0.5 mg/dL
Ca [6]: 11.4 mg/dL
Cl [6]: 104.6 meq/L
DBIL [6]: 0.012 mg/dL
GLC [6]: 183.4 mg/dL
IP [6]: 7.2 mg/dL
K [6]: 4.3 meq/L
LDH [6]: 118 IU/L
Na [6]: 140.8 meq/L
PL [6]: 144.6 mg/dL
RALB [6]: 3.8 g/dL
TBIL [6]: 0.034 mg/dL
TC [6]: 73.6 mg/dL
TG [6]: 100.6 mg/dL
TP [6]: 5.7 g/dL
gamma-GTP [6]: 0.6 IU/L
A/G [7]: 2.1
ALP [7]: 1340.2 IU/L
ALT [7]: 35.2 IU/L
AST [7]: 64.8 IU/L
BUN [7]: 18 mg/dL
CRE [7]: 0.4 mg/dL
Ca [7]: 11.2 mg/dL
Cl [7]: 105.6 meq/L
DBIL [7]: 0.01 mg/dL
GLC [7]: 189.8 mg/dL
IP [7]: 7.8 mg/dL
K [7]: 4.4 meq/L
LDH [7]: 92.2 IU/L
Na [7]: 143.2 meq/L
PL [7]: 142.2 mg/dL
RALB [7]: 3.8 g/dL
TBIL [7]: 0.032 mg/dL
TC [7]: 70.4 mg/dL
TG [7]: 110 mg/dL
TP [7]: 5.7 g/dL
gamma-GTP [7]: 1 IU/L
A/G [8]: 2
ALP [8]: 1172.5 IU/L
ALT [8]: 34 IU/L
AST [8]: 62.8 IU/L
BUN [8]: 18.2 mg/dL
CRE [8]: 0.4 mg/dL
Ca [8]: 10.6 mg/dL
Cl [8]: 105 meq/L
DBIL [8]: 0.01 mg/dL
GLC [8]: 185.2 mg/dL
IP [8]: 6.4 mg/dL
K [8]: 4.2 meq/L
LDH [8]: 90.2 IU/L
Na [8]: 141.2 meq/L
PL [8]: 119 mg/dL
RALB [8]: 3.9 g/dL
TBIL [8]: 0.035 mg/dL
TC [8]: 54.8 mg/dL
TG [8]: 126.5 mg/dL
TP [8]: 5.9 g/dL
gamma-GTP [8]: 0 IU/L
